From patent publication US11534457B2, “Use of dextran sulfate” (priority 2017, dated 2022)

System: human motor neurons
Experiment: PI staining (DNA content, cell cycle, cell numbers, apoptotic fraction), Acumen cytometry
Assay type: cell-based
Conditions: 0.01 and 0.1 mg/ml
Method: The study aims were to evaluate the effect of LMW-DS on cell survival and expression of differentiation proteins in three cell types, cerebral cortical neurons, motor neurons and Schwann cells, using two concentrations 0.01 and 0.1 mg/ml of LMW-DS.
Neurons were cultured as 40,000 cells per well and Schwann cells 3,000 cells per. Cells were treated after 24 hours. The number of cells per well depended on the growth phenotype, proliferative capacity, etc.
NeuroBlast was pre-warmed to 37° C. Cells were thawed in a 37° C. water bath for no longer than 2 min. 1 ml of media was gently added drop-wise. Cells were resuspended and transferred to a 15 ml tube containing 9 ml of medium. Cells were centrifuged at 200 relative centrifugal force (RCF) for 5 min. Pellet was resuspended in 5 ml of medium and cells were counted with the Cellometer. 40,000 cells per well were seeded in previously coated 96-well plates. Cells were incubated at 37° C. with 5% CO2. Cells were allowed to settle for 24 hours before drug treatment. After 24 hours NeuroBlast medium was replaced with MotorBlast medium (Lonzo).
LMW-DS was prepared in the culture media of choice for each cell line and added to the respective wells in the doses 0.01 and 0.1 mg/ml. For cell survival assays cells were analyzed after 24 and 48 hours in eight identical wells/dose/time point. Differentiation and protein expression assay was analyzed after 48 hours, also in octuplicates.
Cells were fixated in the wells. Propidium iodine was used for viability assay. For immunohistochemical analysis, neurons were stained with βIII-tubulin, which is a tubulin specific for neurons. Schwann cells were stained for Myelin Basic Protein (MBP). For the negative controls PBST (0.1% Triton-X-100 in PBS) was applied instead of primary antibodies.
The Acumen cytometer allows the direct cytometric analysis of attached cells without prior detachment. […] The protein content of the cells can also be directly measured and expressed as either ‘total protein content’ or ‘mean protein content’.

## low molecular weight dextran sulfate [LMW-DS]
  cell loss in cultures: major cell loss
  number of cells in the G2/M phase (PI content): appeared to increase the number of cells in the G2/M phase
  proliferation within a population of very small cells: small increase in proliferation
